Like-named read-outs stand apart in the source and are kept apart here.
Legend:
[1] = system: elastase; test: Elastase activity with divalent cations in PBS, read at 405 nm; type: biochemical; conditions: for Elastase activity: 0.005M to 0.01M cation concentration in PBS; for sensitivity of elastase to the cation (comparison of the ions): read every minute for 15 minutes
Description: An assay was run that involved varying concentrations of each divalent cation, ranging from concentrations of 0.005M to 1.0M, in phosphate buffered saline (PBS). The positive control contained no cations, while the negative control contained no elastase. Solutions were read at 405 nm every minute for 15 minutes under controlled conditions. The optical density value of the negative control, which represented background interference, was subtracted from each result. These corrected optical density values from the two trials were averaged.

[2] = system: deep white fat; conditions: 10 μM Zn++, 21 days, lateral abdomen; base only 29375.425; P = 0.0001
Description: (§1) All procedures and analyses were performed by blinded observers. […] Images were analyzed using Image Pro Plus software (Media Cybernetics, Silver Spring, Md.) to determine total cross-sectional area of epidermis over standardized lengths. Mean and standard error were assessed using Statview (Abacus Concepts, Berkeley, Calif.), with comparisons made using ANOVA repeated measures and significance determined at 95% with post-hoc testing using Fisher PLSD or Scheffe F-test.

[3] = system: hypodermal brown fat; conditions: 21 days, base only 456566.375
Description: (§2) To prepare these solutions, a 1.0 M stock of zinc acetate [ZnAc*(H2O)2] (Mallinkrodt Lot 8740 KPRK) was prepared in sterile phosphate buffered saline (PBS, pH 7.2, Gibco BRL Lot #1111327) by dissolving 109.75 g in 500 mL. To 0.2 ml of Cetaphil® moisturizer base was added 20 μl of solution a, b, c, or d depending upon group (corresponding to Groups “A,” “B,” “C,” or “D”). For group A, added 20 μl PBS alone to 180 μl Cetaphil×84 tubes. For group B, added 20 μl 1.0M Zn to 180 μl Cetaphil×84 tubes. For group C, added 200 μl of 1.0M Zn to 19.8 ml PBS, vortexed, labeled as 0.01M Zn, and added 20 μl of […] to 180 μl Cetaphil×84 tubes. For group D, added 200 μl 0.01M Zn to 19.8 ml PBS, vortexed, labeled as 0.1 mM Zn, and added 20 μl […] to 180 μl Cetaphil×84 tubes. After addition of samples to moisturizer base, the samples were mixed to homogeneity and stored at 4° C. overnight. At N=4 per treatment group, C57 Black Six mice at 8 weeks of age were anesthetized with 3% isoflurane by inhalation, and were shaved at mid-scapular dorsal region. Moisturizer was applied daily at 0.2 cc per day for each group for a 21 day period. After 21 days application, the treated skin segment was harvested en bloc and subdivided into three equal portions: a cranial portion, a left lateral portion, and a right lateral portion. The cranial portion and the left lateral portion were fixed in 10% neutral buffered formalin for 12-16 hours, then rinsed in 70% ethanol and embedded in paraffin. The right lateral portion was snap frozen in OCT medium at the time of harvest and stored at −35° C. until use.
as §1

[4] = system: murine skin; conditions: for local irritation of skin: 21 days topical
Description: as §2
All procedures and analyses were performed by blinded observers.

[5] = system: epidermis
Description: as §2
as §1, with “Paraffin-embedded specimens from animals treated in example 1 above were sectioned at 4-6 microns, deparaffinized, and stained with a combination of Verhoeff elastica stain and the Masson trichrome stain for morphological assessment of epidermal thickness. All” for “All”
Paraffin-embedded specimens from animals were treated in Example 1 except that the doses of 10.0 μM Zn^++, 1.0 μM Zn^++, 0.1 μM Zn^++, and the control were applied for 42 days. Specimens were fixed and embedded as above, sectioned at 4-6 microns, deparaffinized, and stained with a combination of Verhoeff elastica stain and the Masson trichrome stain for morphological assessment of epidermal thickness. All procedures and analyses were performed by blinded observers. […] Images were analyzed using Image Pro Plus software (Media Cybernetics, Silver Spring, Md.) to determine total cross-sectional area of epidermis over standardized lengths. Mean and standard error were assessed using Statview (Abacus Concepts, Berkeley, Calif.), with comparisons made using ANOVA repeated measures and significance determined at 95% with post-hoc testing using Fisher PLSD or Scheffe F-test.

| SMILES | Elastase activity [1] | sensitivity of elastase to the cation (comparison of the ions) [1] | Cross-sectional deep adipose area across standardized epidermal lengths, Mean [2] | Cross-sectional hypodermal adipose area across standardized epidermal lengths, Mean ([3]; 10 μM Zn++ (Z low), P=0.0001) | Cross-sectional hypodermal adipose area across standardized epidermal lengths, Mean ([3]; 1.0 mM Zn++ (Z med)) | Cross-sectional hypodermal adipose area across standardized epidermal lengths, Mean ([3]; 100 mM Zn++ (Z high)) | elastin content of skin (black elastic fibers, Verhoeff Elastica stain) ([4]; 21 days daily topical, 10 μM, 1.0 mM, 100 mM Zn++ in moisturizer base vs base only) | local irritation of skin ([4]; high dose, 100 mM Zn++ (Z high)) | local irritation of skin ([4]; lower doses (Z low, Z med)) | Epidermal area across standardized epidermal lengths, Mean ([5]; 0.1 μM Zn++ (Z low), 42 days, base only 6728.286) | Epidermal area across standardized epidermal lengths, Mean ([5]; 1.0 μM Zn++ (Z med), 42 days, base only 6728.286) | Epidermal area across standardized epidermal lengths, Mean ([5]; 10 μM Zn++ (Z high), 42 days, base only 6728.286, P = 0.0014) | Epidermal area across standardized epidermal lengths, Mean ([5]; 10.0 μM Zn++ (Z low), 21 days, base only 18221.646) | Epidermal area across standardized epidermal lengths, Mean ([5]; 1.0 mM Zn++ (Z med), 21 days, base only 18221.646) | Epidermal area across standardized epidermal lengths, Mean ([5]; 100 mM Zn++ (Z high), 21 days, base only 18221.646) | elastase function as the concentration of zinc-containing components increases ([1]; increasing concentration) |
| --- | --- | --- | --- | --- | --- | --- | --- | --- | --- | --- | --- | --- | --- | --- | --- | --- |
| [Ca+2] [Ca^2+] | increased | most sensitive |  |  |  |  |  |  |  |  |  |  |  |  |  |  |
| [Mg+2] [Mg^2+] | increased | least sensitive |  |  |  |  |  |  |  |  |  |  |  |  |  |  |
| CC(=O)[O-].CC(=O)[O-].[Zn+2] [Zn^++, zinc acetate] | increased | most constantly inhibited | 73011.321 pixels | 436809.417 pixels | 377185.833 pixels | 132251.333 pixels | dose-dependant increases in the elastin content of skin | epidermal sloughing and irritation occurs | without local signs of irritation | 6710.000 pixels | 7724.190 pixels | 7203.875 pixels | 16786.125 pixels | 20799.188 pixels | 27365.292 pixels | stabilizing, then destabilizing, then restabilizing elastase function |

— patent publication US8975295B2, “Modulation of zinc levels to improve tissue properties” (Precision Dermatology, Inc., priority 2002, dated 2015)
